From patent US10201586B2 (dated 2019)
Read-outs that look alike come from different tables or passages of the source. Each block holds one compound with its values, some of them ahead of it. Where a SMILES comes first, the peptide text is derived from it. Bridges are numbered along the chain shown (N, C = ends). [ ]: non-standard residue; d: D form. NMeF = CN[C@@H](Cc1ccccc1)C(=O)O; β3hD = NC(CC(=O)O)CC(=O)O; Aib = CC(C)(N)C(=O)O; Sar = CNCC(=O)O

How the values were obtained:
TFPI [1] = target: T1, TFPI (Homo sapiens, UniProt P10646); test: % Inhibition @ 2.5µM
TFPI [2] = target: T1, TFPI; test: Extrinsic Tenase Inhibition assay | % Inhibition @ 2.5µM
TFPI [3] = target: T1, TFPI; test: % Inhibition @ 2.5µM; conditions: read-out: % Inhibition @ […]
Target sequence in this assay (P10646 29-304 limits assumed): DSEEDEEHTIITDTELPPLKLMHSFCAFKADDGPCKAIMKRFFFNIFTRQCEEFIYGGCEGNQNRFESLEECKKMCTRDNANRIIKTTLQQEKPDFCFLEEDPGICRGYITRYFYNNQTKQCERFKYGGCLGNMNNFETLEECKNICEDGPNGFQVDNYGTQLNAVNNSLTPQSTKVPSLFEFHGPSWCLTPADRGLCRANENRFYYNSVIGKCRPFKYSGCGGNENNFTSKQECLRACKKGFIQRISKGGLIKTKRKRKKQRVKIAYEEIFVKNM

TFPI [4] = target: T1, TFPI; test: Extrinsic Tenase Inhibition assay | % Inhibition @ 2.5µM; conditions: read-out: Extrinsic Tenase Inhibition assay | % Inhibition @ […]
Target sequence in this assay (P10646 29-304 limits assumed): as above

TFPI [5] = target: T1, TFPI; test: as above; conditions: read-out: Extrinsic Tenase Inhibition assay | % Inhibition @ […]; remark: listed apart in the source
Target sequence in this assay (P10646 29-304 limits assumed): as above

TFPI [6] = target: T1, TFPI; test: FXa Inhibition assay | EC50 (µM)
Target sequence in this assay (P10646 29-304 limits assumed): as above

human TFPI-1 = target: T2, human TFPI-1 (Homo sapiens, UniProt P10646); test: BIAcore surface plasmon resonance assay; format: binding
T2 construct: human TFPI-1 (residues 29-282 fused at the C-terminus to a 10 His-tag); purchased R&D Systems 2974-PI

TFPI [7] = target: T1, TFPI; test: % Inhibition @ 2.5µM; conditions: read-out: % Inhibition @ […]; remark: listed apart in the source
Target sequence in this assay (P10646 29-304 limits assumed): as above

TFPI [8] = target: T1, TFPI; test: IC50 Mean (nM]
Target sequence in this assay (P10646 29-304 limits assumed): as above

TFPI [9] = target: T1, TFPI; test: % Inhibition @ 2.5µM; remark: listed apart in the source
TFPI [10] = target: T1, TFPI; test: Extrinsic Tenase Inhibition assay | % Inhibition @ 2.5µM; remark: listed apart in the source
TFPI [11] = target: T1, TFPI; test: as above; remark: listed apart in the source
TFPI [12] = target: T1, TFPI; test: % Inhibition @ 2.5µM; conditions: read-out: % Inhibition @ […]; remark: listed apart in the source
TFPI [13] = target: T1, TFPI; test: Extrinsic Tenase Inhibition assay | EC50 (µM)
TFPI [14] = target: T1, TFPI; test: Extrinsic Tenase Inhibition by TFPI | EC50 (µM)
TFPI [15] = target: T1, TFPI; test: Progress Curves of Inhibition of FXa | EC50 (µM)
TFPI [16] = target: T1, TFPI; test: KD (M)
TFPI [17] = target: T1, TFPI; test: koff (1/s); conditions: read-out: koff (1/s)
TFPI [18] = target: T1, TFPI; test: BiaCore | kon (1/Ms); conditions: read-out: BiaCore | kon (1/Ms)
TFPI [19] = target: T1, TFPI; test: Extrinsic Tenase Inhibition assay | % Inhibition @ 2.5µM; remark: listed apart in the source
TFPI [20] = target: T1, TFPI; test: Progress Curves of Inhibition of FXa | % Inhibit (2.5µM)
TFPI [21] = target: T1, TFPI; test: Extrinsic Tenase Inhibition by TFPI | % Inhibit (2.5µM)
TFPI [22] = target: T1, TFPI; test: % Inhibition @ 2.5µM; remark: listed apart in the source
TFPI [23] = target: T1, TFPI; test: Extrinsic Tenase Inhibition assay | EC50 (µM); remark: listed apart in the source

T2 sequence (P10646 29-282): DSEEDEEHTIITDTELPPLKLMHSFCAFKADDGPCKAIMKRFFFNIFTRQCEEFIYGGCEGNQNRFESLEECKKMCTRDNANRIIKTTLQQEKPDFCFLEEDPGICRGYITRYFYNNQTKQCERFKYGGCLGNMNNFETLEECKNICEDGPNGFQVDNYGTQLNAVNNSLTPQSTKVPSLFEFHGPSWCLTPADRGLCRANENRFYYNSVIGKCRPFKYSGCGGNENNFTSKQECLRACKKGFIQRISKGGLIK

% Inhibition @ […] (TFPI [1]): 14%
Extrinsic Tenase Inhibition assay | % Inhibition @ […] (TFPI [2]): 0%
Compound: Ac-FQSKGNVFVFGYFERLR-bAla-KL-NH2 (SEQ ID NO: 423) [JBT0532]

inhibition at […] (TFPI [5]): 32%
EC50 (TFPI [6]): 0.21 µM
Compound: CC(=O)N[C@@H](Cc1ccccc1)C(=O)N[C@@H](CCC(N)=O)C(=O)N[C@@H](CO)C(=O)N[C@@H](CCCCN)C(=O)N(C)CC(=O)N[C@@H](CC(N)=O)C(=O)N[C@H](C(=O)N[C@@H](Cc1ccccc1)C(=O)N[C@H](C(=O)N[C@H](C(=O)NCC(=O)N[C@@H](Cc1ccc(O)cc1)C(=O)N[C@@H](Cc1ccccc1)C(=O)N[C@@H](CCC(=O)O)C(=O)N[C@@H](CCCNC(=N)N)C(=O)N[C@@H](CC(C)C)C(=O)N[C@@H](CCCNC(=N)N)C(=O)N[C@@H](C)C(=O)N[C@@H](CCCCN)C(=O)N[C@@H](CC(C)C)C(N)=O)[C@@H](C)O)C(C)C)C(C)C [JBT1155] (Ac-FQSK[Sar]NVFVTGYFERLRAKL-NH2)

inhibition at […] (TFPI [12]): 45%
EC50 (TFPI [13]): 1.92 µM
Compound: CC(=O)N[C@@H](Cc1ccccc1)C(=O)N[C@@H](CCC(N)=O)C(=O)N[C@@H](CO)C(=O)N[C@@H](CCCCN)C(=O)N(C)CC(=O)N[C@@H](CC(N)=O)C(=O)N[C@H](C(=O)N[C@@H](Cc1ccccc1)C(=O)N[C@H](C(=O)N[C@@H](Cc1ccccc1)C(=O)NCC(=O)N[C@@H](Cc1ccc(O)cc1)C(=O)N[C@@H](Cc1ccccc1)C(=O)N[C@@H](C)C(=O)N[C@@H](CCCNC(=N)N)C(=O)N[C@@H](CC(C)C)C(=O)N[C@@H](CCCNC(=N)N)C(=O)N[C@@H](C)C(=O)N[C@@H](CCCCN)C(=O)N[C@@H](CC(C)C)C(N)=O)C(C)C)C(C)C [JBT0780] (Ac-FQSK[Sar]NVFVFGYFARLRAKL-NH2)

EC50 (TFPI [14]): 6.4 µM
EC50 (TFPI [15]): 18.8 µM
Kd (TFPI [16]): 0.238 µM
koff (TFPI [17]): 0.0425 s⁻¹
kon (TFPI [18]): 178000 M⁻¹ s⁻¹
Compound: CSCC[C@@H]1NC(=O)CNC(=O)[C@@H](NC(=O)[C@H](Cc2ccccc2)NC(=O)[C@H](Cc2c[nH]c3ccccc23)NC(=O)[C@H](CCCCN)NC(=O)[C@H](Cc2ccc(O)cc2)NC(=O)[C@H](CCCNC(=N)N)NC(=O)[C@H](CO)NC(=O)[C@H](C)NC(=O)CNC(=O)[C@H](CO)NC(C)=O)CSSC[C@@H](C(=O)N[C@H](C(=O)N[C@@H](Cc2c[nH]c3ccccc23)C(=O)N[C@H](C(=O)N[C@@H](CCCCN)C(N)=O)C(C)C)C(C)C)NC(=O)[C@H](CO)NC(=O)[C@H](CCSC)NC(=O)[C@H]([C@@H](C)O)NC(=O)CNC(=O)[C@H](CCCCN)NC(=O)[C@H](CCSC)NC(=O)[C@H](CC(=O)O)NC(=O)[C@H](CCCNC(=N)N)NC1=O [JBT0320] (Ac-SGASRYKWFCGMRDMKGTMSCVWVK-NH2; disulfide 10-21)

Progress Curves of Inhibition of FXa | % Inhibit ([…]) (TFPI [20]): 2%
Extrinsic Tenase Inhibition by TFPI | % Inhibit ([…]) (TFPI [21]): 11%
% Inhibition @ […] (TFPI [22]): 0%
Compound: Ac-SRYKWFSGMRDMKGTMSSVWVKF-NH2 (SEQ ID NO: 1229) [JBT0417]

EC50 (TFPI [23]): 1.13 µM
Compound: CC(=O)N(C)[C@@H](Cc1ccccc1)C(=O)N[C@@H](CCC(N)=O)C(=O)N[C@@H](CO)C(=O)N[C@@H](CCCCN)C(=O)NCC(=O)N[C@@H](CC(N)=O)C(=O)N[C@H](C(=O)N[C@@H](Cc1ccccc1)C(=O)N[C@H](C(=O)N[C@@H](Cc1ccccc1)C(=O)NCC(=O)N[C@@H](Cc1ccc(O)cc1)C(=O)N[C@@H](Cc1ccccc1)C(=O)N[C@@H](CCC(=O)O)C(=O)N[C@@H](CCCNC(=N)N)C(=O)N[C@@H](CC(C)C)C(=O)N[C@@H](CCCNC(=N)N)C(=O)N[C@@H](C)C(=O)N[C@@H](CCCCN)C(=O)N[C@@H](CC(C)C)C(N)=O)C(C)C)C(C)C [JBT0497] (Ac-[NMeF]QSKGNVFVFGYFERLRAKL-NH2)

Further lines, the compound ahead of its results:

Compound: CSCC[C@@H]1NC(=O)CNC(=O)[C@@H](NC(=O)[C@H](Cc2ccccc2)NC(=O)[C@H](Cc2c[nH]c3ccccc23)NC(=O)[C@H](CCCCN)NC(=O)[C@H](Cc2ccc(O)cc2)NC(=O)[C@H](CCCNC(=N)N)NC(=O)[C@H](CO)NC(=O)[C@H](CCCCN)NC(=O)[C@H](CCCCN)NC(C)=O)CSSC[C@@H](C(=O)N[C@H](C(=O)N[C@@H](Cc2c[nH]c3ccccc23)C(=O)N[C@@H](CCCCN)C(=O)N[C@@H](CCCCN)C(N)=O)C(C)C)NC(=O)[C@H](CO)NC(=O)[C@H](CCSC)NC(=O)[C@H]([C@@H](C)O)NC(=O)CNC(=O)[C@H](CCCCN)NC(=O)[C@H](CCSC)NC(=O)[C@H](CC(=O)O)NC(=O)[C@H](CCCNC(=N)N)NC1=O [JBT0250] (Ac-KKSRYKWFCGMRDMKGTMSCVWKK-NH2; disulfide 9-20)
inhibition at […] (TFPI [3]): 11%
inhibition at […] (TFPI [4]): 19%

Compound: CC(=O)N[C@@H](Cc1ccccc1)C(=O)N[C@@H](CCC(N)=O)C(=O)N[C@@H](CO)C(=O)N[C@@H](CCCCN)C(=O)N[C@@H](CC(N)=O)C(=O)N[C@@H](CC(N)=O)C(=O)N[C@H](C(=O)N[C@@H](Cc1ccccc1)C(=O)N[C@H](C(=O)N[C@@H](Cc1ccccc1)C(=O)NCC(=O)N[C@@H](Cc1ccc(O)cc1)C(=O)N[C@@H](Cc1ccccc1)C(=O)N[C@@H](CCC(=O)O)C(=O)N[C@@H](CCCNC(=N)N)C(=O)N[C@@H](CC(C)C)C(=O)N[C@@H](CCCNC(=N)N)C(=O)N[C@@H](C)C(=O)N[C@@H](CCCCN)C(=O)N[C@@H](CC(C)C)C(N)=O)C(C)C)C(C)C [JBT0297] (Ac-FQSKNNVFVFGYFERLRAKL-NH2)
koff (human TFPI-1): 0.014 s⁻¹
kon (human TFPI-1): 500000 M⁻¹ s⁻¹
inhibition at […] (TFPI [7]): 59%
IC50 (TFPI [8]): 0.063 µM

Compound: Ac-SRYKWF[CGMADMKGTMSC]VWVKF-NH2 (SEQ ID NO: 1079) (Ac-SRYKWFCGMADMKGTMSCVWVKF-NH2; disulfide 7-18; SMILES CSCC[C@@H]1NC(=O)CNC(=O)[C@@H](NC(=O)[C@H](Cc2ccccc2)NC(=O)[C@H](Cc2c[nH]c3ccccc23)NC(=O)[C@H](CCCCN)NC(=O)[C@H](Cc2ccc(O)cc2)NC(=O)[C@H](CCCNC(=N)N)NC(=O)[C@H](CO)NC(C)=O)CSSC[C@@H](C(=O)N[C@H](C(=O)N[C@@H](Cc2c[nH]c3ccccc23)C(=O)N[C@H](C(=O)N[C@@H](CCCCN)C(=O)N[C@@H](Cc2ccccc2)C(N)=O)C(C)C)C(C)C)NC(=O)[C@H](CO)NC(=O)[C@H](CCSC)NC(=O)[C@H]([C@@H](C)O)NC(=O)CNC(=O)[C@H](CCCCN)NC(=O)[C@H](CCSC)NC(=O)[C@H](CC(=O)O)NC(=O)[C@H](C)NC1=O) [JBT0446]
% Inhibition @ […] (TFPI [9]): 50%
Extrinsic Tenase Inhibition assay | % Inhibition @ […] (TFPI [10]): 46%

Compound: Ac-FQSKGNVFVFGYF-bE-RLRAKL-NH2 (SEQ ID NO: 272) (Ac-FQSKGNVFVFGYF[β3hD]RLRAKL-NH2; SMILES CC(=O)N[C@@H](Cc1ccccc1)C(=O)N[C@@H](CCC(N)=O)C(=O)N[C@@H](CO)C(=O)N[C@@H](CCCCN)C(=O)NCC(=O)N[C@@H](CC(N)=O)C(=O)N[C@H](C(=O)N[C@@H](Cc1ccccc1)C(=O)N[C@H](C(=O)N[C@@H](Cc1ccccc1)C(=O)NCC(=O)N[C@@H](Cc1ccc(O)cc1)C(=O)N[C@@H](Cc1ccccc1)C(=O)N[C@@H](CC(=O)O)CC(=O)N[C@@H](CCCNC(=N)N)C(=O)N[C@@H](CC(C)C)C(=O)N[C@@H](CCCNC(=N)N)C(=O)N[C@@H](C)C(=O)N[C@@H](CCCCN)C(=O)N[C@@H](CC(C)C)C(N)=O)C(C)C)C(C)C) [JBT0528]
% Inhibition @ […] (TFPI [1]): 25%
Extrinsic Tenase Inhibition assay | % Inhibition @ […] (TFPI [11]): 8%

Compound: Ac-FQSK-Nmg-NVFVTGYFERL-Aib-AKL-NH2 (SEQ ID NO: 165) (Ac-FQSK[Sar]NVFVTGYFERL[Aib]AKL-NH2; SMILES CC(=O)N[C@@H](Cc1ccccc1)C(=O)N[C@@H](CCC(N)=O)C(=O)N[C@@H](CO)C(=O)N[C@@H](CCCCN)C(=O)N(C)CC(=O)N[C@@H](CC(N)=O)C(=O)N[C@H](C(=O)N[C@@H](Cc1ccccc1)C(=O)N[C@H](C(=O)N[C@H](C(=O)NCC(=O)N[C@@H](Cc1ccc(O)cc1)C(=O)N[C@@H](Cc1ccccc1)C(=O)N[C@@H](CCC(=O)O)C(=O)N[C@@H](CCCNC(=N)N)C(=O)N[C@@H](CC(C)C)C(=O)NC(C)(C)C(=O)N[C@@H](C)C(=O)N[C@@H](CCCCN)C(=O)N[C@@H](CC(C)C)C(N)=O)[C@@H](C)O)C(C)C)C(C)C) [JBT1585]
Extrinsic Tenase Inhibition assay | % Inhibition @ […] (TFPI [19]): 48%
